# Measurements published in US8816090B2, “Benzisoxazole derivatives” (Pfizer Inc., priority 2005, dated 2014).
# Counter-ions that a name gives are not always drawn.
# Legend:
# Human 5-HT4(d) = molecular target: T1, Human 5-HT4(d) (Homo sapiens, UniProt Q13639); experiment: Agonist-induced cAMP elevation in human 5-HT4(d) transfected HEK293 cells; type: cell-based; conditions: for Emax: HEK293, cAMP production normalized to the amount produced by 1,000 nM serotonin; for EC50: cAMP elevation (HTRF), human 5-HT4(d) transfected HEK293 cells
# T1 construct: expressed in transfected cells
# T1 sequence (Q13639 1-360 isoform Q13639-3): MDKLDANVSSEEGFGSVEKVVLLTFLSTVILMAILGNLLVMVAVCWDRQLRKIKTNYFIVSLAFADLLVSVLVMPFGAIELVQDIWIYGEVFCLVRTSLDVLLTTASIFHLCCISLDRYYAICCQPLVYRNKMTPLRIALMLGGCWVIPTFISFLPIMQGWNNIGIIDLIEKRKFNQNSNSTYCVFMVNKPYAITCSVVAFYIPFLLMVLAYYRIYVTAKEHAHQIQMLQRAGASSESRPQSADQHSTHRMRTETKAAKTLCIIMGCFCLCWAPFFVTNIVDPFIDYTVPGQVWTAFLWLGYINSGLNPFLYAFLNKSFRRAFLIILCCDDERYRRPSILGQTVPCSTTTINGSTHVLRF
# Description: Human 5-HT4(d) transfected HEK293 cells were established in-house. The cells were grown at 37° C. and 5% CO2 in DMEM supplemented with 10% FCS, 20 mM HEPES (pH 7.4), 200 μg/ml hygromycin B (Gibco), 100 units/ml penicillin and 100 μg/ml streptomycin.
# The cells were grown to 60-80% confluence. On the previous day before treatment with compounds dialyzed FCS (Gibco) was substituted for normal and the cells were incubated overnight.
# Compounds were prepared in 96-well plates (12.5 μl/well). The cells were harvested with PBS/1 mM EDTA, centrifuged and washed with PBS. At the beginning of the assay, cell pellet was resuspended in DMEM supplemented with 20 mM HEPES, 10 μM pargyline (Sigma) and 1 mM 3-isobutyl-1-methylxanthine (Sigma) at the concentration of 1.6×10^5 cells/ml and left for 15 min at room temperature. The reaction was initiated by addition of the cells into plates (12.5 μl/well). After incubation for 15 min at room temperature, 1% Triton X-100 was added to stop the reaction (25 μl/well) and the plates were left for 30 minutes at room temperature. Homogenous time-resolved fluorescence-based cAMP (Schering) detection was made according to the manufacturer's instruction. ARVOsx multilabel counter (Wallac) was used to measure HTRF (excitation 320 nm, emission 665 nm/620 nm, delay time 50 μs, window time 400 μs).
# Data was analyzed based on the ratio of fluorescence intensity of each well at 620 nm and 665 nm followed by cAMP quantification using cAMP standard curve. Enhancement of cAMP production elicited by each compound was normalized to the amount of cAMP produced by 1,000 nM serotonin (Sigma).
Emax (Human 5-HT4(d)) [%],EC50 (Human 5-HT4(d)) [nM],melting point [°C],Structure (SMILES)
33,27,–,"O=C(O)C1(CN2CCC(COc3noc4cccc(OCC5(CO)CCCC5)c34)CC2)CCOCC1 [Example 51, 4-[(4-{[(4-{[1-(Hydroxymethyl)cyclopentyl]methoxy}-1,2-benzisoxazole-3-yl)oxy]methyl}piperidin-1-yl)methyl]tetrahydro-2H-pyran-4-carboxylic acid]"
50,0.24,176.9,"O=C(O)C1(CN2CCC(COc3noc4cccc(OCC5CCC5)c34)CC2)CCC1 [Example 20, 1-{[4-({[4-(Cyclobutylmethoxy)-1,2-benzisoxazol-3-yl]oxy}methyl)piperidin-1-yl]methyl}cyclo-butanecarboxylic acid]"
40,65,–,"O=C(O)C1(CN2CCC(COc3noc4cccc(OCC5(CO)CCC5)c34)CC2)CCOCC1 [Example 49, 4-[(4-{[(4-{[1-(Hydroxymethyl)cyclobutyl]methoxy}-1,2-benzisoxazol-3-VI)oxy]methyl}piperidin-1-yl)methyl]tetrahydro-2H-pyran-4-carboxylic acid]"
30,20,227.1,"O=C(O)C(F)(F)CN1CCC(COc2noc3cccc(OCC(F)(F)F)c23)CC1 [Example 6, 2,2-Difluoro-3-[4-({[4-(2,2,2-trifluoroethoxy)-1,2-benzisoxazol-3-yl]oxy}methyl)-piperidin-1-yl]propanoic acid]"
41,3.6,173.8,"O=C(O)C1(CN2CCC(COc3noc4cccc(OCC5CCC5)c34)CC2)CCCC1 [Example 17, 1-{[4-({[4-(Cyclobutylmethoxy)-1,2-benzisoxazol-3-yl]oxy}methyl)piperidin-1-yl]methyl}cyclo-pentanecarboxylic acid]"
34,0.69,129.2,"CC(C)(CN1CCC(COc2noc3cccc(OCC(F)(F)F)c23)CC1)C(=O)O [Example 3, 2,2-Dimethyl-3-[4-({[4-(2,2,2-trifluoroethoxy)-1,2-benzisoxazol-3-yl]oxy}methyl)-piperidin-1-yl]propanoic acid]"
71,11,–,"O=C(O)C1(CN2CCC(COc3noc4cccc(OC5CCOCC5)c34)CC2)CCOCC1 [Example 27, 4-{[4-({[4-(Tetrahydro-2H-pyran-4-yloxy)-1,2-benzisoxazol-3-yl]oxy}methyl)piperidin-1-yl]methyl}-tetrahydro-2H-pyran-4-carboxylic acid]"
50,8.8,–,"CO[C@@H]1CCC[C@@H]1Oc1cccc2onc(OCC3CCN(CC4(O)CCOCC4)CC3)c12 (relative stereo) [Example 37, 4-({4-[({4-[(cis-2-Methoxycyclopentyl)oxy]-1,2-benzisoxazol-3-yl}oxy)methyl]piperidin-1-yl}methyl)-tetrahydro-2H-pyran-4-ol and its oxalate salt]"
70,2.7,220.5,"O=C(O)C1(CCN2CCC(COc3noc4cccc(OCC(F)(F)F)c34)CC2)CCOCC1 [Example 5, 4-{2-[4-({[4-(2,2,2-Trifluoroethoxy)-1,2-benzisoxazol-3-yl]oxy}methyl)piperidin-1-yl]ethyl}tetrahydro-2H-pyran-4-carboxylic acid]"
88,19,157.1,"O=C(O)C1(CN2CCC(COc3noc4cccc(OC5CCOCC5)c34)CC2)CCCCC1 [Example 30, 1-{[4-({[4-(Tetrahydro-2H-pyran-4-yloxy)-1,2-benzisoxazol-3-yl]oxy}methyl)piperidin-1-yl]methyl}-cyclohexanecarboxylic acid]"
41,3,–,"O=C(O)C1(CCN2CCC(COc3noc4cccc(OC5CCCC5)c34)CC2)CCOCC1 [Example 25, 4-{2-[4-({[4-(Cyclopentyloxy)-1,2-benzisoxazol-3-yl]oxy}methyl)piperidin-1-yl]ethyl}tetrahydro-2H-Pyran-4-carboxylic acid]"
49,3.3,–,"O=C(O)C1(CN2CCC(COc3noc4cccc(O[C@H]5CC[C@@H](O)CC5)c34)CC2)CCOCC1 [Example 43, 4-({4-[({4-[(cis-4-Hydroxycyclohexyl)oxy]-1,2-benzisoxazol-3-yl}oxy)methyl]piperidin-1-yl}methyl)-tetrahydro-2H-pyran-4-carboxylic acid]"
51,3.3,–,"O=C(O)C1(CN2CCC(COc3noc4cccc(O[C@H]5CCC[C@@H]5O)c34)CC2)CCCC1 (relative stereo) [Example 33, 1-({4-[({4-[(trans-2-Hydroxycyclopentyl)oxy]-1,2-benzisoxazol-3-yl}oxy)methyl]piperidin-1-yl}methyl)cyclopentanecarboxylic acid]"
46,2.7,–,"O=C(O)C1(CN2CCC(COc3noc4cccc(O[C@H]5CCC[C@@H]5O)c34)CC2)CCC1 (relative stereo) [Example 34, 1-({4-[({4-[(trans-2-Hydroxycyclopentyl)oxy]-1,2-benzisoxazol-3-yl}oxy)methyl]piperidin-1-yl}-methyl)cyclobutanecarboxylic acid]"
69,1.5,–,"O=C(O)C1(CN2CCC(COc3noc4cccc(OCC(F)(F)F)c34)CC2)CCOCC1 [Example 1, 4-{[4-({[4-(2,2,2-Trifluoroethoxy)-1,2-benzisoxazol-3-yl]oxy}methyl)piperidin-1-yl]methyl}tetrahydro-2H-pyran-4-carboxylic acid]"
56,1.4,–,"CO[C@H]1CCC[C@@H]1Oc1cccc2onc(OCC3CCN(CC4(O)CCOCC4)CC3)c12 (relative stereo) [Example 35, 4-({4-[({4-[(trans-2-Methoxycyclopentyl)oxy]-1,2-benzisoxazol-3-yl}oxy)methyl]piperidin-1-yl}-methyl)tetrahydro-2H-pyran-4-ol and its 4-methylbenzenesulfonate]"
44,3,–,"OC1(CN2CCC(COc3noc4cccc(O[C@H]5CC[C@H](O)CC5)c34)CC2)CCOCC1 [Example 41, 4-({4-[({4-[(trans-4-Hydroxycyclohexyl)oxy]-1,2-benzisoxazol-3-yl}oxy)methyl]piperidin-1-yl}-methyl)tetrahydro-2H-pyran-4-ol]"
71,5.3,–,"O=C(O)[C@H]1CC[C@H](CN2CCC(COc3noc4cccc(O[C@H]5CC[C@@H](CO)CC5)c34)CC2)CC1 [Example 47, trans-4-[(4-{[(4-{[cis-4-(Hydroxymethyl)cyclohexyl]oxy}-1,2-benzisoxazol-3-yl)oxy]methyl}-Piperidin-1-yl)methyl]cyclohexanecarboxylic acid]"
56,1.3,–,"O[C@H]1CC[C@H](Oc2cccc3onc(OCC4CCN(CC5(O)CCOCC5)CC4)c23)C1 (relative stereo) [Example 39, 4-({4-[({4-[(trans-3-Hydroxycyclopentyl)oxy]-1,2-benzisoxazol-3-yl}oxy)methyl]piperidin-1-yl}methyl)tetrahydro-2H-pyran-4-ol]"
40,1.6,–,"O[C@H]1CCC[C@@H]1Oc1cccc2onc(OCC3CCN(CC4(O)CCOCC4)CC3)c12 (relative stereo) [Example 32, 4-({4-[({4-[(trans-2-Hydroxycyclopentyl)oxy]-1,2-benzisoxazol-3-yl}oxy)methyl]piperidin-1-yl}-methyl)tetrahydro-2H-pyran-4-ol]"
67,18,–,"O=C(O)C1(CN2CCC(COc3noc4cccc(O[C@H]5CC[C@H](O)CC5)c34)CC2)CCOCC1 [Example 42, 4-({4-[({4-[(trans-4-Hydroxycyclohexyl)oxy]-1,2-benzisoxazol-3-yl}oxy)methyl]piperidin-1-yl}-methyl)tetrahydro-2H-pyran-4-carboxylic acid]"
41,30,–,"O=C(O)C1(CN2CCC(COc3noc4cccc(OCC5(CO)CCCC5)c34)CC2)CCC1 [Example 52, 1-[(4-{[(4-{[1-(Hydroxymethyl)cyclopentyl]methoxy}-1,2-benzisoxazol-3-yl)oxy]methyl}piperidin-1-yl)methyl]cyclobutanecarboxylic acid]"

Structure (SMILES),Emax (Human 5-HT4(d)) [%],EC50 (Human 5-HT4(d)) [nM],melting point [°C]
"CC(C)COc1cccc2onc(NCC3CCN(CC4(C(=O)O)CCOCC4)CC3)c12 [Example 16, 4-[(4-{[(4-Isobutoxy-1,2-benzisoxazol-3-yl)amino]methyl}piperidin-1-yl)methyl]tetrahydro-2H-pyran-4-carboxylic acid]",55,1.6,178.2
"CC(C)COc1cccc2onc(OCC3CCN(CC4(O)CCOCC4)CC3)c12 [Example 8, 1-[(4-Hydroxytetrahydro-2H-pyran-4-yl)methyl]-4-{[(4-isobutoxy-1,2-benzisoxazol-3-yl)oxy]methyl}-piperidinium and its p-toluenesulfonate salt]",39,2.6,–
